In patent US20070154996A1, “Method for transferring a glucosyl residue” (priority 2004, published 2007):

Assays:
trehalose phosphorylase [1] = target: T1, trehalose phosphorylase (Thermoanaerobacter brockii, UniProt Q8L164); assay: Transglucosylation to polyalcohols by trehalose phosphorylase (GC analysis); format: biochemical, Thermoanaerobium brockii; design: key to Transfer of a glucosyl residue (Transglucosylation): +++: the area of 60% or higher; ++: 30% or higher but less than 60%; +: 0% or higher but less than 30%; −: Transglucosylation was not detected; conditions: 1% (w/v) polyalcohol as acceptor, 1.4% (w/v) β-G1P, pH 6.0, 50° C., 24 hours; for Transfer of a glucosyl residue (Transglucosylation): one unit/ml enzyme, peak area of transferred product to total peak area
T1 construct: cells collected from the culture were disrupted by ultrasonication and then, the supernatant was collected; made in house; host or cells: Thermoanaerobium brockii ATCC 35047 (natural producer, not recombinant); purified by DEAE, butyl and gel filtration chromatography
T1 sequence (Q8L164 1-774): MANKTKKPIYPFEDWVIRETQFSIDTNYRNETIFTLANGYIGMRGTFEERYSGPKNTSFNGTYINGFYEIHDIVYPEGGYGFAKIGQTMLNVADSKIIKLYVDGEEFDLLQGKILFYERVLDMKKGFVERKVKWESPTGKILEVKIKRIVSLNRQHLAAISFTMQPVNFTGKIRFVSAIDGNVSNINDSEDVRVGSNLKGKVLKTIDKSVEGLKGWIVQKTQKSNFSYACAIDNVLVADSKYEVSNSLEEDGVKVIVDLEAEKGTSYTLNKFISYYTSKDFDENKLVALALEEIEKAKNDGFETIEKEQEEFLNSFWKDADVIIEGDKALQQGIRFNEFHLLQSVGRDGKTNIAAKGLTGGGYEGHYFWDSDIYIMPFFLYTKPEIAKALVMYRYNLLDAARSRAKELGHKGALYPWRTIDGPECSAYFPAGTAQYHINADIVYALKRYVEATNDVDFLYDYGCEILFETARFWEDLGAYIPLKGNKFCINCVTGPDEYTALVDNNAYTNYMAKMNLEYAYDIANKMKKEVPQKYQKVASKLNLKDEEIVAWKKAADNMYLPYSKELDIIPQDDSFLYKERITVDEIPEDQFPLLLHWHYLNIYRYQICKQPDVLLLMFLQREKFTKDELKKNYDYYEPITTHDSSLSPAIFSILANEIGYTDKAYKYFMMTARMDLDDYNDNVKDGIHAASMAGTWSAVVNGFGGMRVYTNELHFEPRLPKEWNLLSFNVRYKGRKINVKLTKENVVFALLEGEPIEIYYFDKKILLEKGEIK
Description: (§1) An aqueous solution containing 1% (w/v) of either of polyalcohols (all reagent grade), shown in Table 1 below, 1.4% (w/v) of a reagent grade β-G1P, one unit/ml of trehalose phosphorylase obtained in Example 1-1, and 50 mM acetate buffer (pH 6.0) was prepared and followed by the enzyme reaction while keeping the solution at 50° C. for 24 hours. After the reaction, a portion of each reaction mixture was withdrawn, dried, and dissolved in pyridine for gas chromatography analysis (hereinafter, simply abbreviated as “GC”). In GC analysis, a stainless steel column (internal diameter 3 mm×length 2 m) packed with 2% Silicon OV-17/Chromosorb W”, commercialized by GL Science, Tokyo, Japan) was used. Nitrogen gas was used as carrier gas and the flow rate was set to 40 ml/min. A column oven was controlled to rise a column temperature at 160° C. to 320° C. in a rate of 7.5° C./min after the injection of samples. A hydrogen-flame ion detector was used for the detection. An aqueous solution with the same composition except for trehalose phosphorylase was prepared, kept with the same condition described above, and analyzed by GC by the same condition to confirm the chromatogram of non-reacted polyalcohol and β-G1P. Transfer of a glucosyl residue to each polyalcohol was judged by detecting new peak(s) in the chromatogram of the reaction mixture. The amount of glucosyl-transferred polyalcohol formed by the reaction was estimated based on a peak area of the glucosyl-transferred polyalcohol to the total peak area including that of non-reacted (residual) polyalcohol, and classified into three groups of the area of 60% or higher, “+++”; 30% or higher but less than 60%, “++”; and 0% or higher but less than 30%, “+”.

trehalose phosphorylase [2] = target: T1, trehalose phosphorylase; assay: Transglucosylation to glucuronic acid and C-6DGs by trehalose phosphorylase (GC analysis); format: biochemical, Thermoanaerobium brockii; conditions: 1% (w/v) glucuronic acid or C-6DG as acceptor, 1.4% (w/v) β-G1P, one unit/ml enzyme, pH 6.0, 50° C., 24 hours; peak area of transferred product to total peak area
Description: as §1
An aqueous solution containing 1% (w/v) of any one of glucuronic acid or C-6DGs (all reagent grade), shown in Table 2 below, 1.4% (w/v) of a reagent grade β-G1P, one unit/ml of trehalose phosphorylase obtained in Example 1-1, and 50 mM acetate buffer (pH 6.0) was prepared and followed by the enzyme reaction while keeping the solution at 50° C. for 24 hours. After the reaction, each reaction mixture was analyzed by GC described in Example 1-2. In the same manner as described in Example 1-2, the amount of a glucosyl-transferred product formed by the reaction was estimated based on a peak area of the glucosyl-transferred product to the total peak area including that of non-reacted (remaining) glucuronic acid or C-6DGs, and classified into three groups of the area of 60% or higher, “+++”; 30% or higher but less than 60%, “++”; and 0% or higher but less than 30%, “+”.

Row | Compound | Transfer of a glucosyl residue (Transglucosylation) (trehalose phosphorylase [1]) | Transglucosylation to the polyalcohol, stated in words (trehalose phosphorylase [1]) | Transfer of a glucosyl residue (Transglucosylation) (trehalose phosphorylase [2])
1 | OC[C@@H](O)[C@@H](O)CO [Erythritol] | + (0% or higher but less than 30%) | transferred a glucosyl residue | 
2 | OC[C@@H](O)[C@@H](O)[C@H](O)[C@@H](O)CO [Sorbitol] | −* | no transglucosylation | 
3 | OC[C@@H](O)[C@@H](O)[C@@H](O)CO [Ribitol] | + (0% or higher but less than 30%) | transferred a glucosyl residue | 
4 | O=C[C@H](O)[C@@H](O)[C@H](O)[C@H](O)C(=O)O [Glucuronic acid] |  |  | + (0% or higher but less than 30%)
5 | OC[C@H]1O[C@H](O[C@H]2[C@H](O)[C@@H](O)[C@@H](OC[C@H]3OC(O)[C@H](O)[C@@H](O)[C@@H]3O)O[C@@H]2CO)[C@H](O)[C@@H](O)[C@@H]1O (stereo partly shown) [Isopanose] |  |  | +++ (the area of 60% or higher)
6 | OCC(O)CO [Glycerol] | + (0% or higher but less than 30%) | transferred a glucosyl residue | 
7 | Gentiobiose |  |  | +++ (the area of 60% or higher)
8 | OC[C@H]1O[C@H](OCC2O[C@@H](O)[C@H](O)[C@@H](O)[C@@H]2O)[C@H](O)[C@@H](O)[C@H]1O (stereo partly shown) [Melibiose] |  |  | +++ (the area of 60% or higher)
9 | O[C@H]1[C@H](O)[C@@H](O)[C@H](O)[C@@H](O)[C@H]1O [myo-Inositol] | ++ (30% or higher but less than 60%) | transferred a glucosyl residue | 
10 | OC[C@H]1O[C@H](OC[C@H]2O[C@H](OC[C@H]3OC(O)[C@H](O)[C@@H](O)[C@@H]3O)[C@H](O)[C@@H](O)[C@@H]2O)[C@H](O)[C@@H](O)[C@@H]1O (stereo partly shown) [Isomaltotriose] |  |  | +++ (the area of 60% or higher)
11 | OC[C@H]1O[C@H](OC[C@H]2OC(O)[C@H](O)[C@@H](O)[C@@H]2O)[C@H](O)[C@@H](O)[C@@H]1O (stereo partly shown) [Isomaltose] |  |  | +++ (the area of 60% or higher)
